Measurements published in patent US9745335B2 (Blirt S.A., priority 2012, dated 2017).

Experiments:
[1] = test system: Candida albicans ATCC 10231; test: antifungal activity in vitro, serial dilution in RPMI 1640; assay type: cell-based
How it was run: (§1)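 Standard yeast broth dilution (M27-A2) in pH 7.0 buffered RPMI 1640. A531 of cell suspensions recorded and related graphically to compound concentration.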

[2] = test system: Candida glabrata DSM 11226; test: as above; assay type: cell-based
How it was run: as §1

[3] = test system: Candida krusei DSM 6128; test: as above; assay type: cell-based
How it was run: as §1

[4] = test system: Candida lusitaniae DSM 70102; test: as above; assay type: cell-based
How it was run: as §1

[5] = test system: Candida tropicalis KKP 334; test: as above; assay type: cell-based
How it was run: as §1

[6] = test system: Saccharomyces cerevisiae ATCC 9763; test: as above; assay type: cell-based; conditions: RPMI 1640, pH 7.0; for Antifungal activity IC50: Saccharomyces cerevisiae ATCC 9763 (first head over MIC and IC50); for Antifungal activity MIC: Saccharomyces cerevisiae ATCC 9763
How it was run: as §1

[7] = test system: Human erythrocytes; test: hemotoxicity determination (hemolytic activity); assay type: cell-based
How it was run: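 Human erythrocytes (2×10^7/ml in saline) were incubated with serially diluted compound for 30 min at 37 °C and then centrifuged. Released haemoglobin was read at A540 against a 0.1% Triton X-100 full-lysis control. EH50 is the interpolated concentration giving 50% of the control A540.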

[8] = test system: Aspergillus niger LOCK E201; test: antifungal activity in vitro, broader spectrum; assay type: cell-based
Protocol: (§2) For the determination of antifungal activity in vitro we used method of serial dilution in buffered medium RPMI 1640, pH 7.0, in a 96-wells microplates, according to the standard procedure (National Committee for Clinical Laboratory Standards. Reference method for broth dilution antifungal susceptibility testing of yeast, approved standard, 2nd ed. M27-A2 vol. 22 Wayne, Pa., 2002). The optical density of cells suspension was measured using a microplates reader (Victor^3, Perkin-Elmer) at the wavelength λ=531 nm (A531). On the basis of obtained results the diagrams of relation between A531 values and concentration of examined compound were made.
(§3) Obtained results are presented below in tables 2A and 2B.

[9] = test system: Candida albicans SC 5314; test: antifungal activity in vitro, broader spectrum; assay type: cell-based
Protocol: as §2, §3

[10] = test system: Candida arborea KKP 319; test: antifungal activity in vitro, broader spectrum; assay type: cell-based
Protocol: as §2, §3

[11] = test system: Candida dubliniensis CBS 7987; test: antifungal activity in vitro, broader spectrum; assay type: cell-based
Protocol: as §2, §3

[12] = test system: Candida lipolytica KKP 322; test: antifungal activity in vitro, broader spectrum; assay type: cell-based
Protocol: as §2, §3

[13] = test system: Candida parapsilosis DSM 5784; test: antifungal activity in vitro, broader spectrum; assay type: cell-based
Protocol: as §2, §3

[14] = test system: Candida pseudotropicalis KKP 324; test: antifungal activity in vitro, broader spectrum; assay type: cell-based
Protocol: as §2, §3

[15] = test system: Candida quilliermondii DSM 11947; test: antifungal activity in vitro, broader spectrum; assay type: cell-based
Protocol: as §2, §3

[16] = test system: Candida stellatoidea CBS 1905; test: antifungal activity in vitro, broader spectrum; assay type: cell-based
Protocol: as §2, §3

[17] = test system: Trichoderma viride LOCK E159; test: antifungal activity in vitro, broader spectrum; assay type: cell-based
Protocol: as §2, §3

[18] = test system: Candida albicans clinical strain B3; test: antifungal activity against MDR fungal strains and parents; assay type: cell-based; conditions: C. albicans B3, fluconazole sensitive, parent strain for B4
Protocol: as §2

[19] = test system: Candida albicans clinical strain B4 (CaMdr1p); test: as above; assay type: cell-based; conditions: C. albicans B4 (CaMdr1p), fluconazole-resistant
Protocol: as §2

[20] = test system: Candida albicans clinical strain F2; test: as above; assay type: cell-based; conditions: C. albicans F2, fluconazole sensitive, parent strain for F5
Protocol: as §2

[21] = test system: Candida albicans clinical strain F5 (CaMdr1p); test: as above; assay type: cell-based; conditions: C. albicans F5 (CaMdr1p), fluconazole-resistant
Protocol: as §2

[22] = test system: Candida albicans clinical strain Gu4; test: as above; assay type: cell-based; conditions: C. albicans Gu4, fluconazole sensitive, parent strain for Gu5
Protocol: as §2

[23] = test system: Candida albicans clinical strain Gu5 (CaCdr1p, CaCdr2p); test: as above; assay type: cell-based; conditions: C. albicans Gu5 (CaCdr1p, CaCdr2p), fluconazole-resistant
Protocol: as §2

[24] = test system: Candida albicans strain 5674 (CaCdr1p, CaCdr2p); test: as above; assay type: cell-based; conditions: C. albicans 5674 (CaCdr1p, CaCdr2p)
Protocol: as §2

[25] = test system: Candida albicans strain STY31; test: as above; assay type: cell-based; conditions: C. albicans STY31, 5674 derivative, deletion of CDR1 and CDR2
Protocol: as §2

[26] = test system: Candida albicans strain STY7 (CaCdr1p); test: as above; assay type: cell-based; conditions: C. albicans STY7 (CaCdr1p), 5674 derivative, deletion of CDR2
Protocol: as §2

[27] = test system: CCRF-CEM cells; test: cytotoxic activity against mammalian cells in tissue culture (MTT); assay type: cell-based, human
[28] = test system: HepG2 cells; test: as above; assay type: cell-based, human
[29] = test system: LLC-PK1 cells; test: as above; assay type: cell-based, pig

Substance: N-(L-N,N-diethylphenylalanyl)amphotericin B [Compound A42]
- Antifungal activity MIC [1]: 4 µg/mL
- Antifungal activity MIC [2]: 8 µg/mL
- Antifungal activity MIC [3]: 8 µg/mL
- Antifungal activity MIC [4]: 4 µg/mL
- Antifungal activity MIC [5]: 4 µg/mL
- Antifungal activity IC50 [6]: 2.75 µg/mL
- Antifungal activity MIC [6]: 4 µg/mL
- Hemotoxi EH50 [7]: >100 µg/mL
- Antifungal activity MIC [8]: 1 µg/mL
- Antifungal activity MIC [9]: 4 µg/mL
- Antifungal activity MIC [10]: 4 µg/mL
- Antifungal activity MIC [11]: 2 µg/mL
- Antifungal activity MIC [12]: 4 µg/mL
- Antifungal activity MIC [13]: 4 µg/mL
- Antifungal activity MIC [14]: 4 µg/mL
- Antifungal activity MIC [15]: 4 µg/mL
- Antifungal activity MIC [16]: 4 µg/mL
- Antifungal activity MIC [17]: 2 µg/mL
- Antifungal activity MIC [18]: 2 µg/mL
- Antifungal activity MIC [19]: 8 µg/mL
- Antifungal activity MIC [20]: 1 µg/mL
- Antifungal activity MIC [21]: 2 µg/mL
- Antifungal activity MIC [22]: 2 µg/mL
- Antifungal activity MIC [23]: 4 µg/mL
- Antifungal activity MIC [24]: 4 µg/mL
- Antifungal activity MIC [25]: 4 µg/mL
- Antifungal activity MIC [26]: 4 µg/mL
- IC50 (cytotoxic activity) [27]: >100 µg/mL
- IC50 (cytotoxic activity) [28]: >100 µg/mL
- IC50 (cytotoxic activity) [29]: >100 µg/mL

Substance: N-(L-N,N-dimethylphenylalanyl)amphotericin B [Compound A43]
- Antifungal activity MIC [1]: 4 µg/mL
- Antifungal activity MIC [2]: 4 µg/mL
- Antifungal activity MIC [3]: 4 µg/mL
- Antifungal activity MIC [4]: 2 µg/mL
- Antifungal activity MIC [5]: 4 µg/mL
- Antifungal activity IC50 [6]: 1.43 µg/mL
- Antifungal activity MIC [6]: 4 µg/mL
- Hemotoxi EH50 [7]: >100 µg/mL
- Antifungal activity MIC [8]: 1 µg/mL
- Antifungal activity MIC [9]: 1 µg/mL
- Antifungal activity MIC [10]: 8 µg/mL
- Antifungal activity MIC [11]: 1 µg/mL
- Antifungal activity MIC [12]: 1 µg/mL
- Antifungal activity MIC [13]: 1 µg/mL
- Antifungal activity MIC [14]: 2 µg/mL
- Antifungal activity MIC [15]: 1 µg/mL
- Antifungal activity MIC [16]: 1 µg/mL
- Antifungal activity MIC [17]: 4 µg/mL
- Antifungal activity MIC [18]: 0.5 µg/mL
- Antifungal activity MIC [19]: 1 µg/mL
- Antifungal activity MIC [20]: 4 µg/mL
- Antifungal activity MIC [21]: 4 µg/mL
- Antifungal activity MIC [22]: 1 µg/mL
- Antifungal activity MIC [23]: 2 µg/mL
- Antifungal activity MIC [24]: 1 µg/mL
- Antifungal activity MIC [25]: 1 µg/mL
- Antifungal activity MIC [26]: 0.5 µg/mL
- IC50 (cytotoxic activity) [27]: >100 µg/mL
- IC50 (cytotoxic activity) [28]: >100 µg/mL
- IC50 (cytotoxic activity) [29]: >100 µg/mL

Substance: N-methyl-L-(O^γ-tert-butyl)glutamylamphotericin B [Compound A34]
- Antifungal activity MIC [1]: 4 µg/mL
- Antifungal activity MIC [2]: 4 µg/mL
- Antifungal activity MIC [3]: 4 µg/mL
- Antifungal activity MIC [4]: 2 µg/mL
- Antifungal activity MIC [5]: 4 µg/mL
- Antifungal activity IC50 [6]: 1.22 µg/mL
- Antifungal activity MIC [6]: 2 µg/mL
- Hemotoxi EH50 [7]: >100 µg/mL
- Antifungal activity MIC [8]: 2 µg/mL
- Antifungal activity MIC [9]: 1 µg/mL
- Antifungal activity MIC [10]: 4 µg/mL
- Antifungal activity MIC [11]: 1 µg/mL
- Antifungal activity MIC [12]: 1 µg/mL
- Antifungal activity MIC [13]: 1 µg/mL
- Antifungal activity MIC [14]: 1 µg/mL
- Antifungal activity MIC [15]: 2 µg/mL
- Antifungal activity MIC [16]: 1 µg/mL
- Antifungal activity MIC [17]: 4 µg/mL
- Antifungal activity MIC [18]: 1 µg/mL
- Antifungal activity MIC [19]: 2 µg/mL
- Antifungal activity MIC [20]: 4 µg/mL
- Antifungal activity MIC [21]: 8 µg/mL
- Antifungal activity MIC [22]: 1 µg/mL
- Antifungal activity MIC [23]: 2 µg/mL
- Antifungal activity MIC [24]: 4 µg/mL
- Antifungal activity MIC [25]: 2 µg/mL
- Antifungal activity MIC [26]: 2 µg/mL
- IC50 (cytotoxic activity) [27]: >100 µg/mL
- IC50 (cytotoxic activity) [28]: >100 µg/mL
- IC50 (cytotoxic activity) [29]: >100 µg/mL
